Reference: publication PMC9693223 (Molecules, 2022)

Key:
[1] = tested on: L. mexicana Cas9^ΔNT1 promastigotes; assay: Alamar blue drug sensitivity assay, L. mexicana Cas9^ΔNT1 promastigotes; format: cell-based, Leishmania mexicana; conditions: EC50 Cas9^ΔNT1 relative to L. mexicana Cas9
Description: We used L. mexicana promastigotes of the Cas9 strain developed by Beneke at al. to generate the ΔNT1 strain, and from there the Cas9^ΔNT1+TcrNT2 (see below); The original Cas9 strain was generously donated by Prof. Eva Gluenz (University of Bern, Switzerland). All strains in standard HOMEM (GIBCO, Life Technologies, Paisley, UK) supplemented with 10% heat-inactivated fetal bovine serum (FBS; PAA Laboratories, Linz, Austria) and 1% of a penicillin–streptomycin solution (10,000 U mL^−1 each; Life Technologies) at 25 °C, as described.
The Alamar blue assay (resazurin sodium salt) was used to determine the drug sensitivity of the L. mexicana promastigotes in vitro. The assay is based on the reduction of resazurin sodium salt (blue and non-fluorescent) to resorufin (pink color and fluorescent) by live cells. HOMEM medium with 10% FBS (100 μL) was added to all wells of a white 96-well plate apart from the first well. 200 μL of a known concentration of test compounds was diluted in HOMEM medium and placed in the first well. Compounds were tested in one plate and every compound was diluted over two rows (23 concentrations), leaving the last well of every dilution as a negative control having 100 μL HOMEM medium. Next, 100 μL of L. mexicana culture at a density of 2 × 10^6 cells mL^−1 was added into every well in the plate and incubated for 72 h at a temperature of 25 °C after which resazurin sodium salt (Sigma) (20 μL of a solution of 12.5 mg in 100 mL PBS) was added and the plate was incubated under the same conditions for a further 48 h. Fluorescence was measured in a FLUOstar OPTIMA plate reader (BMG Labtech, Germany), at a wavelength of 544 nm for excitation and 620 nm for emission. The EC50 values and fluorescence data were determined and plotted by the GraphPad Prism 8 Software using an equation for a sigmoid curve with variable slope. Pentamidine was used as positive control and every experiment was performed 3–4 times independently.

[2] = biological target: TcrNT2 (Trypanosoma cruzi, UniProt Q4DHG0); assay: Transport of [^3H]-thymidine by TcrNT2 expressed in L. mexicana Cas9^ΔNT1 (Km, inhibition); format: cell-based
Procedure: These values can be used to calculate the Gibbs free energy of interaction ΔG°, but these experiments cannot distinguish between the test compound being transported or merely binding to the transporter and inhibiting the transit of the [^3H]-thymidine.
Transport assays were conducted with radiolabeled nucleosides [methyl-^3H]-thymidine (20 Ci/mmol; PerkinElmer (Waltham, MA, USA)) and [2,8-^3H]-adenosine (40 Ci/mmol; American Radiolabeled Chemicals (ARC, St-Louis, MO, USA)). Cells were harvested from mid-log phase cultures by centrifugation and washed into an assay buffer (AB) as described, at a density of 1 × 10^8 cells mL^−1. Transport assays were then performed exactly as described previously, using an oil-stop protocol. Briefly, 100 µL of cell suspension (10^7 cells) was mixed with 100 µL of [^3H]-substrate at 2 × final concentration and incubated for a pre-set time prior to the addition of 800 µL of ice-cold AB containing a saturating concentration of unlabeled permeant (usually 1 or 2.5 mM) and immediate centrifugation through an oil layer to separate cells from extracellular radiolabel. The 100 µL of [^3H]-substrate could also contain unlabeled substrate or an inhibitor at 2 × concentration, as appropriate. Next, the microfuge tubes were flash frozen in liquid nitrogen; the tips with the cell pellets cut off and collected in scintillation tubes. Cells were solubilized by incubation in 2% SDS under gentle shaking on a rocking platform prior to the addition of scintillation fluid (Scintilogic U, Lablogic, Sheffield, UK). The tubes stored in the dark overnight before counting in a 300SL Hidex Scintillation Counter (Lablogic).
Michaelis-Menten constants (Km) were calculated by plotting transport rates of [^3H]-substrate against the concentration, using the Michaelis-Menten equation V0 = Vmax([substrate]/([substrate] + Km)) and non-linear regression in GraphPad Prism 8. Inhibition constants (Ki) were calculated using the Cheng-Prusoff equation: Ki = IC50/(1 + (L/Km)), where L represents the radiolabel concentration. The IC50 was obtained by a non-linear regression of the inhibition curve of transport rate versus inhibitor concentration, using an equation for a sigmoid curve with variable slope (GraphPad Prism 8). The Gibbs free energy ΔG° was obtained using the equation ΔG° = −RTln(Ki), in which R is the gas constant and T is the absolute temperature. As discussed previously, these equations apply to competitive rather than non-competitive inhibition. Given that only close analogues of the substrate were used as potential inhibitors and that Hill slopes were consistently close to −1, it is very likely that inhibition was indeed competitive.

[3] = tested on: T. cruzi trypomastigotes; assay: Effect on cell derived trypomastigotes (percent motile parasites); format: cell-based; conditions: Trypanosoma cruzi, 24 h incubation, percent of motile parasites
Procedure: Trypomastigotes were obtained by infecting CHO-K1 cells. CHO-K1 cells were cultivated in RPMI-1640 medium supplemented with 10% heat-inactivated fetal calf serum (FCS), 0.15% (w/v) […], 100 µg mL^−1 penicillin and 130 µg mL^−1 streptomycin and incubated at 37 °C in a humidified atmosphere containing 5% CO2. CHO-K1 cells were initially incubated with metacyclic trypomastigotes obtained by in vitro differentiation of epimastigotes as previously described (multiplicity of infection: 50 parasites per cell) for 4 h. After washing out the non-internalized parasites, the cells were incubated overnight in RPMI medium supplemented with 10% FCS at 37 °C and then maintained at 33 °C in a humidified atmosphere containing 5% CO2 as previously reported. Infected cells were maintained at 33 °C in the presence of 10% FCS. Infected cell-derived trypomastigotes started to burst into the culture medium at the 5th day post-infection. Trypomastigotes collected at day 5 or 6 post infection were used for the viability assays.
To measure the effect of compounds, cell derived trypomastigotes were collected from the extracellular medium at the fifth or sixth day after infection and counted in a Neubauer chamber. […] After incubation the trypanocidal effect was assessed by counting the percent of motile parasites in a Neubauer chamber. […]

[4] = tested on: Leishmania major; set-up: method as in PMID 28453984; conditions: ref [36]; read-out: EC50 against Leishmania major; cited from earlier work
[5] = tested on: L. mexicana; set-up: method as in PMID 28453984; conditions: ref [36]; read-out: EC50 against L. mexicana; cited from earlier work
[6] = tested on: bloodstream form T. brucei; set-up: method as in PMID 23188714, PMID 23505454; conditions: ref [47],[54]; read-out: EC50 against bloodstream form T. brucei; cited from earlier work

Chain of TcrNT2 (Q4DHG0 entry or part of it): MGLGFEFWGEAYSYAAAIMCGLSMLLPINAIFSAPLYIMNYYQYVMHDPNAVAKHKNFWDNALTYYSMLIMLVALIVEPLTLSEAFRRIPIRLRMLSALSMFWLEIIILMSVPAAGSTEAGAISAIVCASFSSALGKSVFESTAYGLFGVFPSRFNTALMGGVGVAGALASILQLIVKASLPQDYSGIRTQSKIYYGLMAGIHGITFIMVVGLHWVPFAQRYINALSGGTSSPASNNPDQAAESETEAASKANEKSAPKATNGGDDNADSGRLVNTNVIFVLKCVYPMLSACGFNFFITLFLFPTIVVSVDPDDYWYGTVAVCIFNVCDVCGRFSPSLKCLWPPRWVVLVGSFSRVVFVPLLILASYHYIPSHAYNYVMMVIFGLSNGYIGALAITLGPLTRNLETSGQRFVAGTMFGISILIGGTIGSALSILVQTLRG

## O=c1[nH]c(=O)n([C@H]2C[C@H](O)[C@@H](CO)O2)cc1F [5-F-2′-dUrd, 5-F-2′-deoxyuridine]
[1]
  RF vs. Cas9 (resistance factor): 26.6
[2]; calculated from Km or Ki at 25 °C
  ΔG° (Gibbs free energy of interaction): -7.93 kcal/mol
[2]; change in ΔG° relative to thymidine
  δ(ΔG°) with respect to ΔG° of thymidine: -1.03 kcal/mol
[2]; read-out: Ki on the transport of [^3H]-thymidine by TcrNT2
  Ki: 1500 ± 120 nM
[3]
  inhibition at 31 µM: ~30%
[4]
  EC50: 1400 nM
[5]
  EC50: 1700 nM
[6]
  EC50: 5200 nM
